Structures can show the parent of a compound that is named as a salt.
Tests used:
[1] = biological target: T1, 5-hydroxytryptamine receptor 2B (Homo sapiens, UniProt P41595); assay: Displacement of [3H]LSD from human 5HT2B receptor
[2] = biological target: T2, 5-hydroxytryptamine receptor 2A (Homo sapiens, UniProt P28223); assay: Displacement of [3H]ketanserin from human 5HT2A receptor
[3] = biological target: Sodium-dependent dopamine transporter (Homo sapiens, UniProt Q01959); assay: Displacement of [3H]WIN-35428 from DAT
Sodium-dependent dopamine transporter, sequence (Q01959 whole entry): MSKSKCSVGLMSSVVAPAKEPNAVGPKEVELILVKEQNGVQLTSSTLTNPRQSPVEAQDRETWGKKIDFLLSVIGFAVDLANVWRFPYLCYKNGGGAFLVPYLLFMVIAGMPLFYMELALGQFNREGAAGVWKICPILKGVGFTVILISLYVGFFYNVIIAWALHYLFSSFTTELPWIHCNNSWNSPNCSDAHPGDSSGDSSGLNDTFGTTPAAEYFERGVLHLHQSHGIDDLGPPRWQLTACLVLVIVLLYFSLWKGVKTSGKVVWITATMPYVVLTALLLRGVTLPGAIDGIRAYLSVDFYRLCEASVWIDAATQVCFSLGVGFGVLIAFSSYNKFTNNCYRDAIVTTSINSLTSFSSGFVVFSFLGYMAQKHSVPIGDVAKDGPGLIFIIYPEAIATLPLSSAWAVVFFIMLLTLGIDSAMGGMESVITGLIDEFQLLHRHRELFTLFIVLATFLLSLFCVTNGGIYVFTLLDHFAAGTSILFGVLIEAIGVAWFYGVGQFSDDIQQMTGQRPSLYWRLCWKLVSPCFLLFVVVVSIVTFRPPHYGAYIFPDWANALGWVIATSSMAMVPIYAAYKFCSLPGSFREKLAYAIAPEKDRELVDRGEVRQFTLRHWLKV

[4] = biological target: T3, 5-hydroxytryptamine receptor 2C (Homo sapiens, UniProt P28335); assay: Displacement of [3H]mesulergine from 5HT2C receptor
T3 sequence (P28335 whole entry): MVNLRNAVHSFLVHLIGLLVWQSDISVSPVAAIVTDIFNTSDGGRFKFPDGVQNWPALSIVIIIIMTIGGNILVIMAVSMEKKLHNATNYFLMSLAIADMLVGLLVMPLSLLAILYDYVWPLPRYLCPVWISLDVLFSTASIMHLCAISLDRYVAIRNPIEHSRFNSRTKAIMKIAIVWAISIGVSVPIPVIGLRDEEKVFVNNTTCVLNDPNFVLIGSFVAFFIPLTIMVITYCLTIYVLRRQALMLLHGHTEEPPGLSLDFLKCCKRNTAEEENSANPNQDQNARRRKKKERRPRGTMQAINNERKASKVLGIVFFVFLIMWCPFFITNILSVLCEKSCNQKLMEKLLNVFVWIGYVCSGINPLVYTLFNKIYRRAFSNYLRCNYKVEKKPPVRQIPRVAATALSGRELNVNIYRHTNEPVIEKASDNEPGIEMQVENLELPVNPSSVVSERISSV

[5] = biological target: Sodium-dependent serotonin transporter (Homo sapiens, UniProt P31645); assay: Displacement of [3H]citalopram from SERT
Sodium-dependent serotonin transporter, sequence (P31645 whole entry): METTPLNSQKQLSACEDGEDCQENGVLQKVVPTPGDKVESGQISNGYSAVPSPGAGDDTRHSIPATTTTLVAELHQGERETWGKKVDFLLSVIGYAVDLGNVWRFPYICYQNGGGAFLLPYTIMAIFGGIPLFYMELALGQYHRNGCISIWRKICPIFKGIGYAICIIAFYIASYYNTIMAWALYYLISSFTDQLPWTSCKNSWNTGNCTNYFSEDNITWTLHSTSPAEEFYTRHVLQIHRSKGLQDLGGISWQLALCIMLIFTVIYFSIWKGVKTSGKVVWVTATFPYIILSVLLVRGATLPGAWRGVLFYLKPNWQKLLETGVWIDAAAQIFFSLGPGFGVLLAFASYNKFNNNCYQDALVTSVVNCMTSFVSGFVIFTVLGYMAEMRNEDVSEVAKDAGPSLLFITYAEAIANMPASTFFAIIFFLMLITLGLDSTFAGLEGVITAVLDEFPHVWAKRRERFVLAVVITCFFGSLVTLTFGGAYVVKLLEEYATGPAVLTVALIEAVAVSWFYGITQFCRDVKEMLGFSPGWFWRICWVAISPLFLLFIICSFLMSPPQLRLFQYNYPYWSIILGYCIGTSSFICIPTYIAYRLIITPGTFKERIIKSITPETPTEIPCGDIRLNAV

[6] = biological target: T3, 5-hydroxytryptamine receptor 2C; assay: Agonist activity at human 5HT2C receptor expressed in HEK293 cells assessed as calcium flux by FLIPR assay
[7] = biological target: Sodium-dependent noradrenaline transporter (Homo sapiens, UniProt P23975); assay: Displacement of [3H]nisoxetine from NET
Sodium-dependent noradrenaline transporter, sequence (P23975 whole entry): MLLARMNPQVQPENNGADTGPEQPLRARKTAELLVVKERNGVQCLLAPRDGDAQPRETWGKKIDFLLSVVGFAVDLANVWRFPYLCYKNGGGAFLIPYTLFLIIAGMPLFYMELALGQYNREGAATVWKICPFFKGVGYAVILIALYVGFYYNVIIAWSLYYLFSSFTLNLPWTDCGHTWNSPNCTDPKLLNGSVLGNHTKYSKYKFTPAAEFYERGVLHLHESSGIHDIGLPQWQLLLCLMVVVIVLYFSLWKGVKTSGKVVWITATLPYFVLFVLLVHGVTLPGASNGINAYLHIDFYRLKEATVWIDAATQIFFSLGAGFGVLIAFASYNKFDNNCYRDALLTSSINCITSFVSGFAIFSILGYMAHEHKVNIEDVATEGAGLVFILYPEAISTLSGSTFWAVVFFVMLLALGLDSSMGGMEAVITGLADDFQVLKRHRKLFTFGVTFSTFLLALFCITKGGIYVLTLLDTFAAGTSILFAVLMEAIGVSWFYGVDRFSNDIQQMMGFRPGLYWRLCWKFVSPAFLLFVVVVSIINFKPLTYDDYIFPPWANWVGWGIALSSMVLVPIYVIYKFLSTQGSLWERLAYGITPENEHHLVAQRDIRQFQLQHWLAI

[8] = biological target: T2, 5-hydroxytryptamine receptor 2A; assay: Agonist activity at human 5HT2A receptor expressed in HEK293 cells assessed as calcium flux by FLIPR assay
[9] = biological target: T1, 5-hydroxytryptamine receptor 2B; assay: Agonist activity at human 5HT2B receptor expressed in HEK293 cells assessed as calcium flux by FLIPR assay

T1 sequence (P41595 whole entry): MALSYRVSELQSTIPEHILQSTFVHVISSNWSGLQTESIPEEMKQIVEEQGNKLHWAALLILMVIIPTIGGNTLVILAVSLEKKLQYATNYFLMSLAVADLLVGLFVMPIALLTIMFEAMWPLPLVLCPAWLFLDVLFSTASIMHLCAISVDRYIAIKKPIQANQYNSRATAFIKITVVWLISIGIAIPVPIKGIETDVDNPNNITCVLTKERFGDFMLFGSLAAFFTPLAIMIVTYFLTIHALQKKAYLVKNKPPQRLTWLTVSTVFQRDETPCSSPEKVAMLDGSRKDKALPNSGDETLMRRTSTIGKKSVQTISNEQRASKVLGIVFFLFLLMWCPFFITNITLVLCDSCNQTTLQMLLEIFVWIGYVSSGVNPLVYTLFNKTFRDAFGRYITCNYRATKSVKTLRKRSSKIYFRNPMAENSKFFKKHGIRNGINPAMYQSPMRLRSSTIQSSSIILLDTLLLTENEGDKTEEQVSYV
T2 sequence (P28223 whole entry): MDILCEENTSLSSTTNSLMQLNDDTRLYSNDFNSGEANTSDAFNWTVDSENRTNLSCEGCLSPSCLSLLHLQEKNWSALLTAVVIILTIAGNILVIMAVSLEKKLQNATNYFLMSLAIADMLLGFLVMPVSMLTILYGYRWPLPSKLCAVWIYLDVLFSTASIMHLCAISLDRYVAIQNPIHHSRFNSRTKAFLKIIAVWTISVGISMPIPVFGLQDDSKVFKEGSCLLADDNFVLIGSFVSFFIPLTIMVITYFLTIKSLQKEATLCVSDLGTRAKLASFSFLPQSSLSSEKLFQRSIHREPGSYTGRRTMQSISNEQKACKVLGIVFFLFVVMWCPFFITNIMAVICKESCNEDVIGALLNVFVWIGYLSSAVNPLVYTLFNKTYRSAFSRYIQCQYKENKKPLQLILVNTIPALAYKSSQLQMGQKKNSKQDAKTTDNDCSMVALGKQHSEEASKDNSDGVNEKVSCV

For `NC[C@H]1C[C@@H]1c1ccc(F)cc1Cl` (relative stereo) [trans-[2-(2-Chloro-4-fluorophenyl)cyclopropyl]methylamine Hydrochloride], the Ki [1] was 16 nM, the Ki [2] was 254 nM and the Ki [3] was greater than 10000 nM. The Ki [4] was 203 nM, the Ki [5] was 1040 nM and the EC50 [6] was 3 nM. It also gave a Ki [7] greater than 10000 nM, an EC50 [8] of 91 nM and an EC50 [9] of 22 nM.

— BindingDB's records for doi:10.1021/jm801354e (University of Illinois At Chicago, 2009)
